Consider one compound from patent publication US20220395522A1, “Methods of Use of Glucosamine for Increasing Nitrogen Retention” (TSI Bioproducts (Xuzhou) Co., Ltd., priority 2021, published 2022).

The structures appear in SMILES notation.

Data set [1] in a line: Body mass, heart rate and blood pressure in randomized, double-blind, placebo-controlled, cross-over supplementation study. The data set is classed as in vivo, human. The following applies: GLU condition, mean ± SD. The protocol: A randomized, double-blind, placebo-controlled, cross-over study design was conducted on healthy males and females. Participants were instructed to report to a laboratory after observing an overnight (8 to 10-hour) fast while maintaining adequate hydration. Participants were asked to abstain from exercise and avoid alcohol and caffeine consumption for 12 hours prior to each study visit. All participants first completed an initial eligibility visit during which a comprehensive medical history, consent document, and body mass index (BMI) assessment were completed. Results from the BMI assessment was used to finalize eligibility. Once deemed eligible, participants were provided with supplies to begin the study protocol.
The remainder of the study consisted of two identical patterns of testing with the exception of what supplementation protocol was followed. FIG. 1 provides a flowchart of the experimental design. Prior to each visit, food and physical activity logs were completed encompassing four days prior to the scheduled laboratory visit. The four days consisted of two weekend days and two weekdays. Each participant reported to the laboratory for a baseline measurement of height, weight, heart rate, and blood pressure. During this visit, participants completed the Bristol Stool Chart and Gastrointestinal Symptom Rating Scale (GSRS) to assess bowel habits and potential gastrointestinal symptoms. Participants were given instructions on how to collect a stool sample and were instructed to do so within 24 hours of each planned study visit. At the completion of this study visit, participants were provided with their first assigned supplement (either PLA [placebo] or GLU [glucosamine]) and instructed to begin supplementation 21 days prior to their second visit. Participants were instructed to collect their second stool sample on the day of their final supplementation dose. On the morning of their second study visit, participants reported to the laboratory after following identical pre-study instructions as previous visits (i.e., fasting, abstention from caffeine and exercise). Study participants again completed assessments for height, weight, heart rate, blood pressure, and questionnaires regarding their bowel habits and gastrointestinal symptoms while also providing their second stool sample and turning in completed food and activity logs. A washout period lasting a minimum of 14 days and a maximum of 21 days separated each phase of the crossover as shown in FIG. 1.
In a double-blind manner, a glucosamine supplement (GLU) or a maltodextrin placebo (PLA) was distributed in identical opaque capsules to all participants. On a daily basis, participants were instructed to ingest three capsules, each containing 1,000 mg of glucosamine hydrochloride (GlucosaGreen®, TSI Group Ltd. MT, USA) or a placebo (maltodextrin) identical in appearance for a total of 21 days. Each visit at the beginning of the supplementation regimen (Visits 1 and 4, respectively; See FIG. 1) occurred on or before the first day of supplementation while the final day of supplementation occurred the day before each participant's follow-up visit for that study period (Visits 2 and 4, respectively). Participants were instructed to ingest the supplement 15-30 minutes before breakfast with eight fluid ounces of cold water. In the case of a missed dose, participants were instructed to consume the missed dose as soon as possible with a meal. […] The dose of maltodextrin used in the following examples was two to five-fold lower, respectively, than these investigations.
Height and weight were measured for every participant without shoes and in minimal clothing using a standardized wall-mounted stadiometer (Tanita, model #HR-200, Tokyo, Japan) and a self-calibrating digital scale (Tanita, model #BWB-627A Class III, Tokyo, Japan). Prior to heart rate and blood pressure measurements, participants rested in a seated position for five minutes. […]

The next data set relates to Peptococcaceae. As to the kind of experiment: Fecal microbiota analysis, differential abundance of taxa (MaAsLin). Particulars: after GLU intake compared to baseline (GLU (Pre)), p=0.021. Format: in vivo, human. The protocol: To determine significant differences between bacterial alpha diversity metrics (the measure of microbiome diversity within a single sample), a paired t-test was used between alpha diversity values of different sample groups (p<0.05). Significant differences in beta diversity (the measure of similarity or dissimilarity of multiple samples) between groups was determined using the qiime diversity beta-group-significance command in QIIME2 as well, which performs pairwise Permutational Multivariate Analysis of Variance (PERMANOVA) tests on beta diversity distance matrices (p<0.05). Differential abundance of taxa between sample groups were evaluated using Multivariate Analysis by Linear Models (MaAsLin) in R version 4.0.2 using the Maaslin2 command in the Maaslin2 R library on rarified taxonomy data generated by QIIME2 (p<0.05). […]
A fecal microbiota analysis was further conducted. […] The Qubit Fluorometer (Thermo Fisher Scientific, San Francisco, Calif.) was used to quantify PCR product concentrations prior to combining the PCR products in equal quantities for purification with the Wizard SV Gel and PCR Cleanup kit (Promega, Madison, Wis.). […] Library purity and concentration was measured on a 2100 Bioanalyzer System (Agilent Technologies, Santa Clara, Calif.). […]
Ion Torrent BAM files of raw DNA sequencing data were converted to the FASTQ format using BEDTools and then analyzed using Quantitative Insights into Microbiology (QIIME2) version 2019.10. Reads shorter than 200 bp in length were removed. […] Multiple sequence Alignment using Fast Fourier Transform (MAFFT) was used for read alignment, while gapped and unconserved alignments were filtered using the alignment mask plugin. […] Sequences of mitochondria and chloroplast origin were filtered from downstream analysis, leaving a total of 1,391,259 total high-quality reads associated with taxonomic annotations. Samples were rarified to 7,874 reads for alpha and beta diversity analysis. […]

Setting [2] is: Post 21 days, 3 x 1,000 mg/day oral.

`Cl.N[C@H]1C(O)O[C@H](CO)[C@@H](O)[C@@H]1O` (stereo partly shown) [GLU, glucosamine hydrochloride]: in data set [1] (setting [2]), the “Diastolic BP” value was 77.0 ± 9.8 mmHg, the “Heart Rate” value is recorded as 63.1 ± 8.1 beats/min and the “Systolic BP” value is on record as 119.4 ± 10.8 mmHg. Besides, in data set [1] (Pre (baseline)), the “Diastolic BP” value was 73.9 ± 9.3 mmHg, the “Heart Rate” value turned out to be 66.8 ± 7.7 beats/min and the “Systolic BP” value is given as 121.7 ± 14.2 mmHg. For the same compound, the “Proportion of Peptococcaceae, Log2 FC” value in the data set on Peptococcaceae is listed as −4.52.
